What was measured:
[1] = system: Carrageenan pleurisy; assay: Carrageenan Pleurisy Test (In Vivo); set-up: species or system male Lewis rats; settings: Rattus norvegicus, po, read-out: Rat Carrageenan Pleurisy % Inhib. of Exudate Volume
[2] = system: ear edema; assay: Mouse Ear Edema Test (In Vivo), arachidonic acid; set-up: species or system CD-1 male mice; settings: topical, 1 h, at 1 mg topically
Text: Invest. Dermatol. 80:48 (1983) and Hames, Opas and Bonney, "Arachidonic Acid Metabolites in Mouse Ear Edema" Advances in Inflammation Research, 11:57 (1986). […] CD-1 male mice weighing 15 to 25 g were employed, and they were designated as follows: (1) Control Group, in which no arachidonic acid or test compound was to be applied, (2) Arachidonic Acid-Treated Group, in which no test compound was to be applied, and (3) Treated Group, in which the test compound was to be applied first, followed by the application of arachidonic acid. In the case of the Group (3) animals, the test compound, dissolved in acetone, was applied to the dorsal surface of the right ear of the mouse with a 25-microliter pipettor, with the dose of the test compound being varied. After 0.5 hours in some cases and 4 hours in others, the arachidonic acid was topically applied in the same manner as above to the pretreated ear areas. In each case of arachidonic acid application, an amount of 0.5 mg dissolved in 25 microliters of acetone was used. After 1 hour, the mice were sacrificed by carbon dioxide inhalation. A 6 mm-diameter standard biopsy punch was used to obtain a uniform tissue sample from the ear of each mouse so treated, and the tissue samples were weighed to the nearest 0.1 mg. The percent inhibition of ear edema formation was calculated as follows: [formula]

[3] = system: myeloperoxidase accumulation (acetic acid-induced colitis); assay: Acetic Acid-Induced Colitis in Rats, In Vivo; set-up: species or system male rats (Sprague-Dawley)
Text: The rat acetic acid-induced colitis bioassay has been described by J. E. Krawisz, et al. in Amer. J. Proc. Gastro. Col. Rec. Surg. 31: 11-18 (1980), and by P. Sharon and W. F. Stenson in Gastroenterolgy 88: 55-63 (1985) and 86: 453-460 (1984). Acetic acid-induced colitis is characterized by the movement of inflammatory cells into the colon, with the number of such cells in the mucosa being measured by the activity of myeloperoxidase, a marker enzyme for these cells. Positive desirable activity is indicated by a reduction in the high levels of myeloperoxidase caused by acetic acid. Male rats (Sprague-Dawley), weighing 150 to 300 g, were pretreated twice daily for two days with either the vehicle (water, or dimethylsulfoxide) or the test inhibitor compound suspended in water or dissolved in dimethylsulfoxide and orally administered. On the third day, the animals were dosed the same as on the previous two days, anesthetized with metofane, and 2 ml of 2.5% acetic acid was injected by syringe into the colonic lumen, followed immediately by 3 ml of air and a rinse consisting of 3 ml of phosphate-buffered saline (the acetic acid is present in the lumen for a sufficient period to cause inflammation without producing severe necrosis or irreversible damage). The animals were administered a second dose of the test compound in the same amount about 16 hours later. 24 hours after the acetic acid treatment, the animals were sacrificed, the colonic mucosa was surgically removed and homogenized in an aqueous buffer at pH 6 with a Tissumizer or similar device and myeloperoxidase was measured in the homogenate using o-phenylenediamine as a chromagen, as described by A. Voller, D. E. Bidwell and A. Bartlett in The Enzyme Linked Immunosorbent Assay (ELISA), Zoological Soc., London, 1979, pages 29-30. Control animals were pretreated with the vehicle and saline in place of acetic acid.

[4] = Rat In Vivo Model of Myocardial Ischemia (free radical generator infusion); set-up: species or system male spontaneously hypertensive rats; settings: 10 mg/kg iv; for Rat Ischemia Model % Infarction: percent of left ventricle infarcted of the animals with an infarct
Description: In this preparation a free radical generating (FRG) system consisting of purine (2.3 mM), xanthine oxidase (0.02 U/ml) and iron loaded transferring (0.6 μM) complex is infused into the carotid artery near the ostium of the coronary artery in spontaneously hypertensive rats. Blood is withdrawn before and 24 hours after the FRG challenge for measuring the isoenzymes of lactic acid dehydrogenase (LDH1 :LDH2). An increase in LDH1 :LDH2 ratio reflects cell damage to the myocardium. The electrocardiogram is also taken before and 24 hours after the FRG infusion. At the end of the experiment the heart is removed, sliced in a breadloaf fashion, and stained with triphenyltetrazolium chloride to determine infarct size. A drug or vehicle is administered intravenously 10-30 minutes before the FRG challenge. A drug is considered active if there is no elevation of the LDH1 :LDH2 ratio, no ECG abnormalities and no histologic evidence of an infarction.
Male spontaneously hypertensive rats (280-320 g) from Taconic Farms, were lightly anesthetized with sodium pentobarbital (30-50 mg/kg, i.p.). […] A catheter of PE 50 tubing was inserted into the right common carotid artery to a position proximal to the ostia of the coronary arteries and used to sample blood and infuse the free radical generator (FRG) system. A second catheter of PE 10 tubing was inserted into the left jugular vein to administer drugs. The infusion system for the FRG consisted of a double syringe infusion pump, Sage Model 351, with one syringe containing xanthine oxidase (0.01 units/ml) in a HEPES (0.05M) buffer and the other syringe containing purine (2.3 mM) plus Fe^3+ loaded transferring (0.06 μM) in a HEPES (0.05M) buffer. The FRG infused separately mixes simultaneously near the ostia of the coronary arteries. This infusion was delivered at a rate of 0.03 ml/minute for a total infusion time of 10 minutes. The drugs were infused over a one minute period in a 0.9% saline vehicle.
Standard Lead II ECG was monitored continuously on a Hewlett-Packard 7758A recorder prior to treatment, throughout the FRG infusion and 10 minutes post infusion. Catheters were removed and animals were allowed to recover and fed standard rat chow and water ad libitum. 24 hours following the FRG infusion, animals were reanesthetized with sodium pentobarbital (30-50 mg/kg, i.p.) and an ECG was obtained. Blood samples were taken prior to and after the FRG infusion and at the conclusion of the experiment. These samples were centrifuged and assayed for total lactate dehydrogenase (LDH) and lactate dehydrogenase isoenzymes (LDH1 :LDH2), using electrophoresis.
The animals were sacrificed, the hearts rapidly excised, and washed free of blood and sectioned. The left ventricle was weighed and stored in a Revco® freezer at -70° C. The left ventricle was sliced into 2 mm-thick rings, incubated in a 1% triphenyltetrazolium chloride solution for 20 minutes, and then fixed in a 10% formalin solution. Infarcted areas were measured and quantitated as a percentage of the total left ventricular volume.

Row | Structure (SMILES) | inhibition in vivo at 75 mg/kg ([1]; at 75 mg/kg p.o) | inhibition in vivo at 1 mg [2] | Rat Acetic Acid Colitis Model % Inhib. of Myeloperoxidase Accumulation ([3]; 10 mg/kg p.o) | Rat Acetic Acid Colitis Model % Inhib. of Myeloperoxidase Accumulation ([3]; 100 mg/kg p.o) | Rat Ischemia Model Infarcts/Total [4] | Rat Ischemia Model % Infarction [4] | inhibition in vivo at 100 mg/kg ([1]; at 100 mg/kg p.o) | Rat Acetic Acid Colitis Model % Inhib. of Myeloperoxidase Accumulation ([3]; 30 mg/kg p.o)
1 | CCCc1c(OCCCCCCc2ccc(C(C)C)c(O)c2O)ccc(C(=O)O)c1O [4-[6-[2,3-dihydroxy-4-(1-methylethyl)phenyl]hexyloxy]-2-hydroxy-3-propylbenzoic acid] | 47% | 45% | 53 ± 12% | 86 ± 9% | 1/5 | 5% | – | –
2 | CCCc1c(OCCCCc2cccc(O)c2O)ccc(C(=O)O)c1O [4-[4-(2,3-dihydroxyphenyl)butoxy]-2-hydroxy-3-propylbenzoic acid] | – | 17% | 73 ± 10% | – | 2/5 | 8% | 76% | 71 ± 11%

— patent US5025036A, “Catechol carboxylic acids” (Hoffmann-La Roche Inc., priority 1989, dated 1991)
